Assay type in all cases: physicochemical
Data set [1] in a line: Solid form stability study of salts and/or co-crystals at 25° C./60% RH and 40° C./75% RH. On the procedure:
The stability of the prepared salts and/or co-crystals was analyzed after 1 and 2 weeks at 25° C. and 60% relative humidity and 40° C. and 75% relative humidity. […] None of the phosphate, tartrate, or nicotinate salts and/or co-crystals underwent a form change during the stability testing, and each of them retained greater than 97% purity over the two weeks of the study. In fact, both the tartrate and nicotinate both retained greater than 99% purity.

Data set [2] can be described thus: Form change/disproportionation of residual solids by XRPD after suspension in water or Medisca Oral Mix. The settings on record: for Form change (residual solids, XRPD): RT. How it is done:
The kinetic solubility was evaluated for nicotinate, phosphate, L-tartrate, and fumarate salts and/or co-crystals of sepiapterin in water and […] Oral Mix. X-ray powder diffraction (XRPD) was performed for the residual solids to identify form change/disproportionation. Solids were suspended into the media with target conc. of 7 mg/mL (calculated by freebase). […] Oral Mix after 1 hour. […] Oral Mix.

Data set [3] is described as follows: Kinetic solubility in water and Medisca Oral Mix (HPLC solubility, purity and pH of supernatant). The settings on record: RT; for Purity (area %) of supernatant: for reference only; for Purity (area %) of supernatant / pH: listed as fumarate salt and/or co-crystal. On the procedure:
The kinetic solubility was evaluated for nicotinate, phosphate, L-tartrate, and fumarate salts and/or co-crystals of sepiapterin in water and […] Oral Mix. X-ray powder diffraction (XRPD) was performed for the residual solids to identify form change/disproportionation. Solids were suspended into the media with target conc. of 7 mg/mL (calculated by freebase).

As to `C[C@H](O)C(=O)C1=Nc2c(nc(N)[nH]c2=O)NC1` [Benzenesulfonate, sepiapterin], the “Purity (Area %)” value was found to be 90.68 Area % in data set [1] (1 week, 25° C./60% RH); 82.63 Area % in data set [1] (1 week, 40° C./75% RH); 86.37 Area % in data set [1] (2 weeks, 25° C./60% RH); 82.65 Area % in data set [1] (2 weeks, 40° C./75% RH); 90.20 Area % in data set [1] (Initial). Also, the “Purity vs. initial (%)” value in data set [1] (1 week, 25° C./60% RH) was 100.5%; in data set [1] (1 week, 40° C./75% RH) it was 91.6%; in data set [1] (2 weeks, 25° C./60% RH), 95.8%; in data set [1] (2 weeks, 40° C./75% RH) it was 91.6%.
For `C[C@H](O)C(=O)C1=Nc2c(nc(N)[nH]c2=O)NC1` [Fumarate, sepiapterin], the “Disproportionation in the disproportionation study” value in data set [2] is on record as “no evidence of disproportionation”. Moreover, the “Form change (residual solids, XRPD)” value in data set [2] (Medisca Oral Mix, 1 hr, listed as fumarate salt and/or co-crystal) is recorded as “No **”; in data set [2] (Medisca Oral Mix, 4 hr, listed as fumarate salt and/or co-crystal) it was “No **”; in data set [2] (Medisca Oral Mix, 24 hr, listed as fumarate salt and/or co-crystal), “No **”; in data set [2] (Water, 1 hr, listed as fumarate salt and/or co-crystal), “No”; in data set [2] (Water, 4 hr, listed as fumarate salt and/or co-crystal) it was “No”; in data set [2] (Water, 24 hr, listed as fumarate salt and/or co-crystal), “No”. In addition, in data set [2] (Medisca Oral Mix, after 1 hour, listed as fumarate salt and/or co-crystal), the “Form of the residual solids in Medisca Oral Mix” value was “crystallinity of residual solids decreased”. In data set [2] (water, after 1 hour, listed as fumarate salt and/or co-crystal), the “Form of the residual solids in water” value is “no form change was observed”. The Observation result in data set [3] (Medisca Oral Mix, 1 hr) was “Turbid”; in data set [3] (Medisca Oral Mix, 4 hr), “Turbid”; in data set [3] (Medisca Oral Mix, 24 hr) it was “Turbid”; in data set [3] (Water, 1 hr), “Turbid”; in data set [3] (Water, 4 hr) it was “Turbid”; in data set [3] (Water, 24 hr), “Turbid”. In addition, the “Purity (area %) of supernatant” value in data set [3] (Medisca Oral Mix, 1 hr) came to 99.74 area %; in data set [3] (Medisca Oral Mix, 4 hr), 99.60 area %; in data set [3] (Medisca Oral Mix, 24 hr) it was 96.54 area %; in data set [3] (Water, 1 hr) it was 98.39 area %; in data set [3] (Water, 4 hr), 98.19 area %; in data set [3] (Water, 24 hr), 95.43 area %. The pH in data set [3] (Medisca Oral Mix, 1 hr) worked out at 4.0; in data set [3] (Medisca Oral Mix, 4 hr), 4.0; in data set [3] (Medisca Oral Mix, 24 hr) it was 4.0; in data set [3] (Water, 1 hr), 3.1; in data set [3] (Water, 4 hr), 3.1; in data set [3] (Water, 24 hr) it was 3.1. Also, the “Stability in the solid form stability study of Example 2” value in data set [1] is reported as “high stability”. In addition, the Form change result in data set [1] (1 week, 25° C./60% RH) was “No”; in data set [1] (1 week, 40° C./75% RH), “No”. The “Purity (Area %)” value is 99.39 Area % in data set [1] (1 week, 25° C./60% RH); 99.15 Area % in data set [1] (1 week, 40° C./75% RH); 99.25 Area % in data set [1] (2 weeks, 25° C./60% RH); 98.98 Area % in data set [1] (2 weeks, 40° C./75% RH); 99.46 Area % in data set [1] (Initial). Further, the “Purity vs. initial (%)” value in data set [1] (1 week, 25° C./60% RH) came out at 99.9%; in data set [1] (1 week, 40° C./75% RH), 99.7%; in data set [1] (2 weeks, 25° C./60% RH) it was 99.7%; in data set [1] (2 weeks, 40° C./75% RH), 99.5%.
In the case of `C[C@H](O)C(=O)C1=Nc2c(nc(N)[nH]c2=O)NC1` [Gentisate, sepiapterin], the “Purity (Area %)” value stood at 97.66 Area % in data set [1] (1 week, 25° C./60% RH); 96.89 Area % in data set [1] (1 week, 40° C./75% RH); 97.00 Area % in data set [1] (2 weeks, 25° C./60% RH); 93.37 Area % in data set [1] (2 weeks, 40° C./75% RH); 94.35 Area % in data set [1] (Initial). Besides, the “Purity vs. initial (%)” value in data set [1] (1 week, 25° C./60% RH) turned out to be 103.5%; in data set [1] (1 week, 40° C./75% RH) it was 102.7%; in data set [1] (2 weeks, 25° C./60% RH), 102.8%; in data set [1] (2 weeks, 40° C./75% RH), 102.1%.
On to `C[C@H](O)C(=O)C1=Nc2c(nc(N)[nH]c2=O)NC1` [Glycolate, sepiapterin], for which the “Purity (Area %)” value came to 98.93 Area % in data set [1] (1 week, 25° C./60% RH); 98.54 Area % in data set [1] (1 week, 40° C./75% RH); 98.86 Area % in data set [1] (2 weeks, 25° C./60% RH); 98.52 Area % in data set [1] (2 weeks, 40° C./75% RH); 99.19 Area % in data set [1] (Initial). In addition, the “Purity vs. initial (%)” value in data set [1] (1 week, 25° C./60% RH) was determined as 99.7%; in data set [1] (1 week, 40° C./75% RH), 99.3%; in data set [1] (2 weeks, 25° C./60% RH) it was 99.7%; in data set [1] (2 weeks, 40° C./75% RH) it was 99.3%.
With `C[C@H](O)C(=O)C1=Nc2c(nc(N)[nH]c2=O)NC1` [HCI, sepiapterin], the Form change result in data set [1] (1 week, 25° C./60% RH) was “No”; in data set [1] (1 week, 40° C./75% RH), “No”; in data set [1] (2 weeks, 25° C./60% RH), “No”; in data set [1] (2 weeks, 40° C./75% RH), “No”. In addition, the “Purity (Area %)” value worked out at 97.19 Area % in data set [1] (1 week, 25° C./60% RH); 89.25 Area % in data set [1] (1 week, 40° C./75% RH); 91.84 Area % in data set [1] (2 weeks, 25° C./60% RH); 84.16 Area % in data set [1] (2 weeks, 40° C./75% RH); 93.94 Area % in data set [1] (Initial). Besides, the “Purity vs. initial (%)” value in data set [1] (1 week, 25° C./60% RH) was determined as 103.5%; in data set [1] (1 week, 40° C./75% RH), 95.0%; in data set [1] (2 weeks, 25° C./60% RH), 97.8%; in data set [1] (2 weeks, 40° C./75% RH), 89.6%.
For the compound `C[C@H](O)C(=O)C1=Nc2c(nc(N)[nH]c2=O)NC1` [Malonate, sepiapterin], the “Purity (Area %)” value in data set [1] (1 week, 25° C./60% RH) stood at 99.39 Area %; in data set [1] (1 week, 40° C./75% RH), 99.14 Area %; in data set [1] (2 weeks, 25° C./60% RH), 99.23 Area %; in data set [1] (2 weeks, 40° C./75% RH), 97.81 Area %; in data set [1] (Initial), 99.45 Area %. For the same compound, the “Purity vs. initial (%)” value in data set [1] (1 week, 25° C./60% RH) is 99.9%; in data set [1] (1 week, 40° C./75% RH), 99.7%; in data set [1] (2 weeks, 25° C./60% RH) it was 99.8%; in data set [1] (2 weeks, 40° C./75% RH) it was 98.3%.
Take `C[C@H](O)C(=O)C1=Nc2c(nc(N)[nH]c2=O)NC1` [Methanesulfonate, sepiapterin]: the Form change result is “No” in data set [1] (1 week, 25° C./60% RH); “No” in data set [1] (1 week, 40° C./75% RH); “No” in data set [1] (2 weeks, 25° C./60% RH); “No” in data set [1] (2 weeks, 40° C./75% RH). Also, the “Purity (Area %)” value in data set [1] (1 week, 25° C./60% RH) is given as 95.26 Area %; in data set [1] (1 week, 40° C./75% RH) it was 88.68 Area %; in data set [1] (2 weeks, 25° C./60% RH) it was 91.95 Area %; in data set [1] (2 weeks, 40° C./75% RH), 85.97 Area %; in data set [1] (Initial), 91.14 Area %. The “Purity vs. initial (%)” value in data set [1] (1 week, 25° C./60% RH) worked out at 104.5%; in data set [1] (1 week, 40° C./75% RH), 97.3%; in data set [1] (2 weeks, 25° C./60% RH), 100.9%; in data set [1] (2 weeks, 40° C./75% RH) it was 94.3%.
Regarding `C[C@H](O)C(=O)C1=Nc2c(nc(N)[nH]c2=O)NC1` [Sulfate, sepiapterin], the Form change entry was “No” in data set [1] (1 week, 25° C./60% RH); “No” in data set [1] (1 week, 40° C./75% RH); “No” in data set [1] (2 weeks, 25° C./60% RH); “No” in data set [1] (2 weeks, 40° C./75% RH). For the same compound, the “Purity (Area %)” value in data set [1] (1 week, 25° C./60% RH) stood at 95.22 Area %; in data set [1] (1 week, 40° C./75% RH), 89.44 Area %; in data set [1] (2 weeks, 25° C./60% RH) it was 93.46 Area %; in data set [1] (2 weeks, 40° C./75% RH) it was 88.20 Area %; in data set [1] (Initial), 97.33 Area %. The “Purity vs. initial (%)” value was determined as 97.8% in data set [1] (1 week, 25° C./60% RH); 91.9% in data set [1] (1 week, 40° C./75% RH); 96.0% in data set [1] (2 weeks, 25° C./60% RH); 90.6% in data set [1] (2 weeks, 40° C./75% RH).
For the compound `C[C@H](O)C(=O)C1=Nc2c(nc(N)[nH]c2=O)NC1` [Toluenesulfonate, sepiapterin], the Form change result is recorded as “No” in data set [1] (1 week, 25° C./60% RH); “No” in data set [1] (1 week, 40° C./75% RH); “No” in data set [1] (2 weeks, 25° C./60% RH); “No” in data set [1] (2 weeks, 40° C./75% RH). In addition, the “Purity (Area %)” value in data set [1] (1 week, 25° C./60% RH) came to 94.19 Area %; in data set [1] (1 week, 40° C./75% RH), 89.11 Area %; in data set [1] (2 weeks, 25° C./60% RH) it was 91.40 Area %; in data set [1] (2 weeks, 40° C./75% RH) it was 88.12 Area %; in data set [1] (Initial) it was 96.84 Area %. Besides, the “Purity vs. initial (%)” value in data set [1] (1 week, 25° C./60% RH) came out at 97.3%; in data set [1] (1 week, 40° C./75% RH) it was 92.0%; in data set [1] (2 weeks, 25° C./60% RH), 94.4%; in data set [1] (2 weeks, 40° C./75% RH), 91.0%.

Values taken from patent US12637465B2, “Pharmaceutically acceptable salts of sepiapterin” (PTC Therapeutics MP, Inc., priority 2018, dated 2026).
